Test results reported in BindingDB's records for PubMed 35202969 (Maharishi Markandeshwar (Deemed To Be University), 2022).

Molecular target: CYP3A4 (Homo sapiens, UniProt P08684)
Test: Inhibition of CYP3A4 in human liver microsomes using midazolam as substrate
Conditions: probe midazolam

Chain of CYP3A4 (P08684 whole entry): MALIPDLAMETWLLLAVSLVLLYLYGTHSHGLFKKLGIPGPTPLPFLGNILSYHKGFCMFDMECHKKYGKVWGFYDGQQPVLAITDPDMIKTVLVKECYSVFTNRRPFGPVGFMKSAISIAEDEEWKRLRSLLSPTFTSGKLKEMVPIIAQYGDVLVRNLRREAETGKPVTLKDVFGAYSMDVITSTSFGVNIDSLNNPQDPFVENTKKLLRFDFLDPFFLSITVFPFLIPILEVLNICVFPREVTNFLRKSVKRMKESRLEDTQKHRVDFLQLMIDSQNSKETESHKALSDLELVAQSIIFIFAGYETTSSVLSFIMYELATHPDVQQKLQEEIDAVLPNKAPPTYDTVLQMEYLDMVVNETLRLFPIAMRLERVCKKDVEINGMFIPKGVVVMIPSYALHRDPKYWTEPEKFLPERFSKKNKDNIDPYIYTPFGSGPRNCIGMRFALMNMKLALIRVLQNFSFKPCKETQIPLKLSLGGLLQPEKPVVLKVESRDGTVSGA

Ki: 67.9 µM
SMILES: COc1c(N2CC[C@@H](C3(N)CC3)C2)ccc2c(=O)c(C(=O)O)cn([C@@H]3C[C@@H]3F)c12 [DX-619]
